Measurements published in US4624944A, “Human seminal alpha-inhibins” (The Regents of The University of California, priority 1985, dated 1986).
Where no end group is shown, it is not given here.

How the values were obtained:
[1] = system: LHRH-induced FSH secretion by mouse pituitary; assay: FSH-suppressing (inhibin) activity, in vitro mouse pituitary system; format: cell-based; settings: for ED50 (FSH-suppressing activity) / times more active than alpha-IB-31 in suppressing FSH (follitropin) release: mouse pituitaries in vitro; for ED50 (FSH-suppressing activity): LHRH-induced FSH secretion, 95% confidence limits in parenthesis; for times more active than alpha-IB-31 in suppressing FSH (follitropin) release: text statement; for Relative Potency (FSH-suppressing activity): relative to alpha-IB-31 = 1.0
Procedure: FIG. 6 is a graphical illustration of the effect of alpha-IB-31, alpha-IB-52, and alpha-IB-92 on LHRH-induced FSH secretion by mouse pituitary. Means ±SEM (n=5) are shown. On the graph solid circles represent alpha-IB-31; open circles represent alpha-IB-52; solid triangles represent alpha-IB-92.
Disc electrophoresis in polyacrylamide slab gels was performed as described by Reisfield, et al. (1962). The gels were stained with Coomassie Blue (R250). NaDodSO4 gel electrophoresis was carried out as described by Laemmli (1970). The inhibin activity was assayed by the in vitro mouse pituitary system (Yamashiro, et al., 1984; Ramasharma, et al., 1981).
FIG. 6 presents bioassay data for alpha-IB-31, alpha-IB-52 and alpha-IB-92 in suppressing the lutropin-releasing hormone (LHRH)-induced FSH secretion by using mouse pituitaries in vitro. […] The addition of 40 amino acids at the NH2 -terminus of alpha-IB-52 greatly enhance the inhibin activity.

[2] = system: rabbit antiserum to alpha-IB-31; assay: RIA of alpha-inhibins using rabbit antiserum to ILP (displacement of labelled [Tyr4]-alpha-IB-31); format: binding; settings: for potency in displacing labelled [Tyr4]-alpha-IB-31, relative to alpha-IB-31: antiserum raised against alpha-IB-31, text statement; for ED50 (RIA): rabbit antiserum to ILP; for ED50 (RIA) / Relative Potency (RIA): 95% confidence limits in parenthesis; for Relative Potency (RIA): relative to alpha-IB-31 = 1.00
Procedure: Radioimmunoassay was performed with rabbit antiserum to alpha-IB-31. Amino acid analyses were performed in an automatic amino acid analyzer (Model 119C, Beckman) as described by Spackman, et al. (1958). The NH2 -terminal residue was determined by the dansyl-Edman procedure (Gray, 1967). For COOH-terminal residue analysis, carboxypeptidase Y digests were carried out in 1M pyridine acetate buffer (pH 5.5) for 4 hr at 37° C. with an enzyme-to-substrate ratio of 1:50. Trypsin digestions were performed with an enzyme-to-substrate ratio of 1:50 in 0.05M Tris/0.01 M Mg^2+, pH 8.5, at 37° C. for 4 hr.
Alpha-IB-52 and alpha-IB-92 cross-react to an antiserum raised against alpha-IB-31. They displace labelled [Tyr^4 ]-alpha-IB-31 with 60% of the potency of alpha-IB-31.

pituitary FSH secretion = settings: in vitro and in vivo, Yamashiro et al. (1984); cited from earlier work

alpha-inhibin-92 [alpha-IB-92]
ED50 (FSH-suppressing activity) [1]: 0.025 (0.01-0.049) pmol/ml
times more active than alpha-IB-31 in suppressing FSH (follitropin) release [1]: 40 times
times more active than alpha-IB-31 in suppressing FSH (follitropin) release ([1]; listed as alpha-inhibin-92): over 40 times
Relative Potency (FSH-suppressing activity) [1]: 40.5
potency in displacing labelled [Tyr4]-alpha-IB-31, relative to alpha-IB-31 [2]: 60%
ED50 (RIA) [2]: 63 (42-94) fmoles
Relative Potency (RIA) [2]: 0.60 (0.31-1.2)

HNKQEGRDHDKSKGHFHRVVIHHKGGKAHRGTQNPSQDQGNSPSGKGISSQY [alpha-IB-52, alpha-inhibin-52]
ED50 (FSH-suppressing activity) [1]: 0.30 (0.18-0.52) pmol/ml
times more active than alpha-IB-31 in suppressing FSH (follitropin) release [1]: 3.4 times
Relative Potency (FSH-suppressing activity) [1]: 3.4
potency in displacing labelled [Tyr4]-alpha-IB-31, relative to alpha-IB-31 [2]: 60%
ED50 (RIA) [2]: 65 (45-92) fmoles
Relative Potency (RIA) [2]: 0.58 (0.31-1.1)

HNKQEGRDHDKSKGHFHRVVIHHKGGKAHRG [alpha-IB-31, alpha-inhibin-31, reference compound]
ED50 (FSH-suppressing activity) [1]: 1.02 (0.34-2.9) pmol/ml
Relative Potency (FSH-suppressing activity) [1]: 1.0
ED50 (RIA) [2]: 38 (29-50) fmoles
Relative Potency (RIA) [2]: 1.00
suppression of pituitary FSH secretion (pituitary FSH secretion): suppresses pituitary FSH secretion in vitro and in vivo
